Test [1] addresses T1, hEP4 (Homo sapiens, UniProt P35408). As to the kind of experiment: cAMP assay in human EP4 transfectant (functional assay). Set-up: expressed in transfected cells; host or cells: HEK293 (hEP4 cells), selected with geneticin. Conditions: vs 1 nM PGE2; for IC50: cAMP in HEK293 cells expressing human EP4. It counts as cell-based. Here is the method: cAMP Assay in Human EP4 Transfectant
HEK293 cells expressing human EP4 receptors (hEP4 cells) are maintained in DMEM containing 10% FBS and 500 μg/ml geneticin. For harvesting hEP4 cells, culture medium is aspirated and cells in 75 cm^2 flask are washed with 10 ml of phosphate buffered saline (PBS). Another 10 ml of PBS is added to the cells and incubated for 20 min at room temperature. Human EP4 cells are harvested by pipetting and centrifuged at 300×g for 4 min. Cells are resuspended in DMEM without neutral red at a density of 7×10^5 cells/ml containing 0.2 mM IBMX (PDE inhibitor), 1 nM PGE2 and test compounds in PCR-tubes, and incubated at 37° C. for 10 min. The reaction is stopped by heating at 100° C. for 10 min with thermal cycler. Concentration of cAMP in reaction mixtures is determined with SPA cAMP Kit (Amersham) or cAMP Screen™ (Applied Biosystems) according to the manufacture's instruction. • Reference: Eur. J. Pharmacol. 340 (1997) 227–241
(cAMP levels reflect the balance of adenylyl cyclase and phosphodiesterase activity.)

For test [2], the target named is T1, hEP4. Briefly: Human EP receptor cell membrane binding assay ([3H]-PGE2). Further details: expressed in transfected cells; membrane fraction. Particulars: [3H]-PGE2 binding to membranes of human EP4/HEK293 transfectant; acidic and hypotonic buffer condition, MME buffer. The text has this:
Human EP Receptor Cell Membrane Binding Assay:
Stable Expression of Human EP1, 2, 3 and 4 Receptors in the Human Embryonic Kidney (HEK293) Cell Line
The cDNA clones of human EP1, 2, 3 and 4 receptors are obtained by polymerase chain reaction (PCR) from […] kidney or heart cDNA libraries (Clontech). Human embryonic kidney cells (HEK 293) are stably transfected with expression vectors for human EP1, 2, 3 and 4 receptors in according to the method described in the article; the journal of biological chemistry vol. 271 No. 39, pp 23642–23645.
Preparation of Membrane Fraction:
The EP1, 2, 3 and 4 transfectant are grown in Dulbecco's modified Eagle's medium containing 10% fetal bovine serum, 50 U/ml penicillin, 50 μg/ml streptomycin and 500 μg/ml G418 (selection medium) at 37° C. in a humidified atmosphere of 5% CO2 in air. For the membrane preparation, cells are harvested with phosphate buffered saline (PBS) and centrifuged at 400×g for 5 min. The pellet is suspended with child (4° C.) PBS containing 1/100 volume of protease inhibitor cocktail (SIGMA) (1 mM (4-(2-aminoethyl)-benzenesulfonyl fluoride (AEBSF)), 0.8 μM Aprotinin, 22 μM Leupeptin, 40 μM Bestatin, 15 μM Pepstatin A and 14 μM E-64). Cells are lysed with ultrasonic cell disrupter for 60-sec sonication. Then cell mixtures are centrifuged at 1,000×g for 10 minutes. The supernatant μs centrifuged at 160,000×g for 30 minutes at 4° C. The pellet is resuspended in assay buffer (10 mM 2-morpholinoeth-anesulfonic acid (MES)-KOH, 1 mM etylenediamine tetra-acetic acid (EDTA), 10 mM MgCl2, pH 6.0), and protein concentration is determined by Bradford method (Bio-Rad assay). This membrane preparation is stored at −80° C. freezer until use for binding assay.
[^3H]-PGE2 membrane binding assays are performed in the reaction mixture of 10 mM MES/KOH (pH6.0), 10 mM MgCl2, 1 mM EDTA, 1 nM [^3H]-PGE2 (Amersham TRK431, 164 Ci/mmol), 2˜10 μg of protein from membrane fraction (human EP1, 2, 3 and 4/HEK293 transfectant) and test compound (total volume is 0.1 ml in 96 well polypropylene plate). Incubation is conducted for 60 min at room temperature prior to separation of the bound and free radioligand by rapid filtration through glass fiber filters (Printed Filtermat B, 1205-404, glass fiber, double thickness, size 102×258 mm, Wallac inc., presoaked in 0.2% polyethylenimine). Filters are washed with assay buffer and the residual [^3H]-PGE2 bound to the filter is determined by liquid scintillation counter (1205 Betaplate™). Specific binding is defined as the difference between total binding and nonspecific binding which is determined in the presence of 10 μM PGE2.

By IC50 is commonly meant the concentration that gives 50% inhibition. Low readings indicate greater potency in that assay, high ones weaker potency in that assay. As usually defined, the Ki is the dissociation constant of the complex between target and ligand, obtained from inhibition or displacement. A higher Ki goes with weaker binding.

T1 sequence (P35408 whole entry): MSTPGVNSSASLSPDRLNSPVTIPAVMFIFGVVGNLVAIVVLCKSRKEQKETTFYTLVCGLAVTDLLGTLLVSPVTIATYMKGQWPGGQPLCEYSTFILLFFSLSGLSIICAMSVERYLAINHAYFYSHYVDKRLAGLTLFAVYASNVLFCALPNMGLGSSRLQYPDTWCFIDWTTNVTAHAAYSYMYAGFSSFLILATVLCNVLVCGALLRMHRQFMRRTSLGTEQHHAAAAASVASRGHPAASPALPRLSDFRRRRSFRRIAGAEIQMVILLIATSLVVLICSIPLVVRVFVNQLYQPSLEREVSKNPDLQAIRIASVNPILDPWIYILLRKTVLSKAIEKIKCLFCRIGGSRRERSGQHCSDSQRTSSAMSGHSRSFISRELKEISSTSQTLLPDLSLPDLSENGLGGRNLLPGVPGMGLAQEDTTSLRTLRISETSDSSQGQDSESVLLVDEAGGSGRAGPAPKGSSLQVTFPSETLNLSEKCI

For `O=C(NCc1ccc(-c2nn[nH]n2)cc1)c1cc(Cl)ccc1Oc1ccc(F)cc1` [Example 76, 5-CHLORO-2-(4-FLUOROPHENOXY)-N-[4-(2H-TETRAZOL-5-YL)BENZYL]BENZAMIDE], in test [1], the IC50 turned out to be 100 nM. For the same compound, affinity in test [2] was put at a Ki of 1.8 nM.
On the same counts, the results for `C[C@H](NC(=O)c1cc(Cl)cnc1Oc1ccc(F)c(F)c1)c1ccc(C(=O)O)cc1` [Example 55, 4-[(1S)-1-({[5-CHLORO-2-(3,4-DIFLUOROPHENOXY)PYRIDIN-3-YL]CARBONYL}AMINO)ETHYL]BENZOIC ACID] are 20 nM and 0.7 nM.
Regarding `N#Cc1cnc(Oc2ccc(F)cc2)c(C(=O)NCc2ccc(C(=O)O)cc2)c1` [Example 57, 4-[({[5-CYANO-2-(4-FLUOROPHENOXY)PYRIDIN-3-YL]CARBONYL}AMINO)METHYL]BENZOIC ACID], the inhibition at 5 µM in test [1] (@ 5000 nM, read-out: functional assay human EP4 % Inh.) came out at 75%. Further, half-maximal inhibition in test [1] (IC50) was put at 1800 nM. The affinity in test [2], expressed as Ki, was 92 nM.
In test [1], `C[C@H](NC(=O)c1cc(Cl)cnc1Oc1cccc(F)c1)c1ccc(C(=O)O)cc1` [Example 48, 4-[(1S)-1-({[5-CHLORO-2-(3-FLUOROPHENOXY)PYRIDIN-3-YL]CARBONYL}AMINO)ETHYL]BENZOIC ACID] registered a concentration for half-maximal inhibition (IC50) of 19 nM. Besides, affinity in test [2] was put at a Ki of 1 nM.
On the same counts, the results for `O=C(NCc1ccc(-c2nn[nH]n2)cc1)c1cc(Cl)cnc1Oc1ccc(F)cc1` [Example 74, 5-CHLORO-2-(4-FLUOROPHENOXY)-N-[4-(2H-TETRAZOL-5-YL)BENZYL]NICOTINAMIDE] are 140 nM and 4 nM.
Turning to `O=C(O)c1ccc(CNC(=O)c2cc(C(F)(F)F)cnc2Oc2ccc(F)cc2)cc1` [Example 56, 4-[({[2-(4-FLUOROPHENOXY)-5-(TRIFLUOROMETHYL)PYRIDIN-3-YL]CARBONYL}AMINO)METHYL]BENZOIC ACID], the IC50 in test [1] is 820 nM. The compound also returned a Ki in test [2] of 20 nM.
As for `C[C@H](NC(=O)c1cc(Cl)ccc1Oc1ccc(F)cc1)c1ccc(C(=O)O)cc1` [Example 68, 4-((1S)-1-{[5-CHLORO-2-(4-FLUOROPHENOXY)BENZOYL]AMINO}ETHYL)BENZOIC ACID], half-maximal inhibition in test [1] (IC50) was put at 43 nM. In addition, the inhibitory constant (Ki) in test [2] worked out at 2.4 nM.
In test [1], `C[C@H](NC(=O)c1cc(Cl)cnc1Oc1cccc(-c2nccs2)c1)c1ccc(C(=O)O)cc1` [Example 45, 4-{(1S)-[({5-CHLORO-2-[3-(1,3-THIAZOL-2-YL)PHENOXY]PYRIDIN-3-YL}CARBONYL)AMINO]ETHYL}BENZOIC ACID] came in with an IC50 of 28 nM. The compound further gave a Ki in test [2] of 0.3 nM.
The matching figures for `C[C@H](NC(=O)c1cc(Cl)ccc1Cc1cccc(Cl)c1)c1ccc(C(=O)O)cc1` [Example 148, 4-((1S)-1-{[5-CHLORO-2-(3-CHLOROBENZYL)BENZOYL]AMINO}ETHYL)BENZOIC ACID]: 3.6 nM and 0.7 nM.
The matching figures for `C[C@H](NC(=O)c1cc(Cl)cnc1Oc1cccc(F)c1)c1ccc(C(=O)NS(=O)(=O)c2cccc(Cl)c2)cc1` [Example 79, 5-CHLORO-N-{(1S)-1-[4-({[(3-CHLOROPHENYL)SULFONYL]AMINO}CARBONYL)PHENYL]ETHYL}-2-(3-FLUOROPHENOXY)NICOTINAMIDE]: 21 nM and 0.7 nM.

Values taken from US7238714B2, “Aryl or heteroaryl amide compounds” (Pfizer Japan, Inc., priority 2003, dated 2007).
